From publication PMC4463742, “A new family of StART domain proteins at membrane contact sites has a role in ER-PM sterol transport” (eLife, 2015)

How the values were obtained:
Ysp2p [1] = biological target: T1, Ysp2p (Saccharomyces cerevisiae, UniProt Q06681); assay: competition of tryptophan-DHE FRET with purified domain; assay type: binding
T1 construct: gene YSP2; StART-like domains Ysp2S1 (829-1027) and Ysp2S2 (1027-1244), His-tagged, each measured

Ysp2p [2] = biological target: T1, Ysp2p; assay: tryptophan-DHE FRET with purified domain; assay type: binding
Lam4p [3] = biological target: T2, Lam4p (Saccharomyces cerevisiae, UniProt P38800); assay: biochemical
T2 construct: gene LAM4

Lam4p [4] = biological target: T2, Lam4p; assay: co-purification of […]-labelled cholesterol from HL60 cells (TLC); competition of DHE FRET; assay type: binding

T1 sequence (Q06681 829-1244): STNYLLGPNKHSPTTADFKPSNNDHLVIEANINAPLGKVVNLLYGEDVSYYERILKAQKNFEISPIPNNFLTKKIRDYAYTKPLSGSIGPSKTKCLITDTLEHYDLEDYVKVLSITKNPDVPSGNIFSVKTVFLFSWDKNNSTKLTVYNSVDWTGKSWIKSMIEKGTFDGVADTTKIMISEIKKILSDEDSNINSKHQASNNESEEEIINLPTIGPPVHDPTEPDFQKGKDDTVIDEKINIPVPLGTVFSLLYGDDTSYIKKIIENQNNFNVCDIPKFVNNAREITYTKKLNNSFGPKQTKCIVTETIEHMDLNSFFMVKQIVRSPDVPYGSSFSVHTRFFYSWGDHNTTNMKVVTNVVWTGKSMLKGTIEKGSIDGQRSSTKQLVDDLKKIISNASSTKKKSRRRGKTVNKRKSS
T2 sequence (P38800 946-1155): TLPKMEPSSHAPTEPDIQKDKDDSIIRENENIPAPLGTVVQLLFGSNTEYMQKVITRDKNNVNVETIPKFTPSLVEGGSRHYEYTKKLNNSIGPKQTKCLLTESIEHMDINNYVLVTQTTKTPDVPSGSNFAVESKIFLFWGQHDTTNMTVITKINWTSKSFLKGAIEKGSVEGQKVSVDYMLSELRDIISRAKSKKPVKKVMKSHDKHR

Compound | competition of tryptophan-DHE FRET with purified domain (Ysp2p [1]) | tryptophan-DHE FRET with purified domain (Ysp2p [2]) | Kd (Lam4p [3]) [nM] | co-purification of 14C-labelled cholesterol from HL60 cells (TLC); competition o (Lam4p [4])
CC(C)[C@@H](C)/C=C/[C@@H](C)[C@H]1CC[C@H]2C3=CC=C4C[C@@H](O)CC[C@]4(C)[C@H]3CC[C@]12C [erg, ergosterol] | All four purified StART-like domains bound both cholesterol (the predominant sterol in mammals) and ergosterol | – | – | –
CC(C)[C@@H](C)/C=C/[C@@H](C)[C@H]1CC[C@H]2C3=CC=C4C[C@@H](O)CC[C@]4(C)C3=CC[C@]12C [DHE, dehydroergosterol] | – | these proteins all produced strong FRET signals with DHE | 500 | –
CC(C)CCC[C@@H](C)[C@H]1CC[C@H]2[C@@H]3CC=C4C[C@@H](O)CC[C@]4(C)[C@H]3CC[C@]12C [chol, cholesterol] | All four purified StART-like domains bound both cholesterol (the predominant sterol in mammals) and ergosterol | – | – | Lam4S2 extracted cholesterol but no other lipids from labelled HL60 cells
